Test results published in US4670440A (priority 1985, dated 1987).
Entries after “also recorded” stand apart in the source; their conditions may differ.

Experiments:
[1] = system: Pseudomonas aeruginosa and gram positive and gram negative bacteria; conditions: Antimicrobial Agents and Chemotherapy 1980, 17, 103-108; cited from earlier work
Staphylococcus aureus = experiment: Minimal inhibiting concentration (MIC), agar-diffusion technique, series diluting method; conditions: norfloxacin dissolved in dimethyl-sulphoxide, THA salt in water
Pseudomonas Aeruginosa = experiment: as above; conditions: norfloxacin dissolved in dimethyl-sulphoxide, THA salt in water
[2] = because of the low solubility; cited from earlier work
[3] = Watersolubility (literature / general statement); type: physicochemical; conditions: water, new compound of the Formula I
[4] = Absorption by the organism / through the intestines; type: in vivo; conditions: compound according to the invention; no test data shown
E. Coli = experiment: Minimal inhibiting concentration (MIC), agar-diffusion technique, series diluting method; type: cell-based; conditions: in vitro; norfloxacin dissolved in dimethyl-sulphoxide, THA salt in water; listed as Norfloxacin-THA-salt
[5] = in vitro, listed as Norfloxacin-THA-salt

SMILES | activity in the therapy of urethral infections [1] | MIC (Staphylococcus aureus; Staphylococcus aureus, read-out: MIC value, in vitro) [µg/mL] | MIC (Pseudomonas Aeruginosa; Pseudomonas aeruginosa, read-out: MIC value, in vitro) [µg/mL] | material absorbed going through the intestines [2] | solubility [3] [mg/mL] | absorption (in words) [4] | biological utilization [4] | MIC value (Staphylococcus aureus; [5]) [µg/mL] | MIC value (Pseudomonas Aeruginosa; [5]) [µg/mL] | MIC value (E. Coli) [µg/mL]
CCn1cc(C(=O)O)c(=O)c2cc(F)c(N3CCNCC3)cc21 [Norfloxacin, 1-ethyl-4-oxo-6-fluoro-7-(1-piperazinyl)-1,4-dihydro-quinoline-3-carboxylic acid, reference compound] | good activity | 0.25 to 0.5 | 0.5 to 0.75 | about 40% | – | – | – | – | – | –
CCn1cc(C(=O)O)c(=O)c2cc(F)c(N3CCNCC3)cc21 [Compound of the Formula I, N,N,N-trimethyl-2-hydroxyethyl-ammonium-[1-ethyl-6-fluoro-4-oxo-7-(1-piperazinyl)-1,4-dihydro-quinoline-3-carboxylate]] | – | – | – | – | > 1000 | better absorption; also recorded: quick absorption; also recorded: excellent absorption | good biological utilization | 0.25 | 0.25 to 0.5 | 0.05 to 0.25
